Assay results: article PMC2813863, “In Vivo Evaluation of α7 Nicotinic Acetylcholine Receptor Agonists [^11C]A-582941 and [^11C]A-844606 in Mice and Conscious Monkeys” (PLoS ONE, 2010)
Several values for one entry are separate records, joined by “and”; a condition that tells them apart may be missing. Equal entries are not always repeated.

What was measured:
α7 nAChRs [1] = target: α7 nAChRs (Mus musculus, UniProt P49582); conditions: in vivo
Description: In the other group of mice, a blocking experiment to determine the α7 nAChRs-specific regional brain uptake of the tracers was carried out. Each tracer (2 MBq/0.055–0.096 nmol) was co-injected with each of the following blockers into mice, and 15 ([^11C]A-582941) or 30 ([^11C]A-844606) min later the mice were killed (n = 5) and the tissue uptake of ^11C was expressed as the %ID/g. […] Each blocker was dissolved in 1N HCl to 40 mg/ml and diluted up to 0.4 mg/ml with saline. The co-injected dose was 1 mg/kg. In the control mice the same amount of 0.01 N HCl in saline was co-injected.

α4β2 = conditions: human receptor; cited from earlier work
[2] = format: in vivo, mice; conditions: mouse, in vivo, iv
Description: Each tracer was intravenously injected into mice, and then the animals were killed by cervical dislocation at 1, 5, 15, 30 and 60 min after injection (n = 4). The body weight of the mice was 34.7±1.2 g. The injected doses of tracers were 2 MBq/0.049–0.051 nmol. Blood was collected by heart puncture and tissues were harvested. The carbon-11 in the samples was counted with an auto-gamma-counter (LKB Wallac Compu-gamma 1282CS, Turku, Finland) and the tissues were weighed. The tissue uptake of carbon-11 was expressed as the %ID/g.

α7 nAChRs [3] = target: α7 nAChRs (Macaca mulatta, UniProt Q866A2); conditions: rhesus monkey, in vivo
α7 nAChRs (Macaca mulatta, UniProt Q866A2), sequence (Q866A2 23-502): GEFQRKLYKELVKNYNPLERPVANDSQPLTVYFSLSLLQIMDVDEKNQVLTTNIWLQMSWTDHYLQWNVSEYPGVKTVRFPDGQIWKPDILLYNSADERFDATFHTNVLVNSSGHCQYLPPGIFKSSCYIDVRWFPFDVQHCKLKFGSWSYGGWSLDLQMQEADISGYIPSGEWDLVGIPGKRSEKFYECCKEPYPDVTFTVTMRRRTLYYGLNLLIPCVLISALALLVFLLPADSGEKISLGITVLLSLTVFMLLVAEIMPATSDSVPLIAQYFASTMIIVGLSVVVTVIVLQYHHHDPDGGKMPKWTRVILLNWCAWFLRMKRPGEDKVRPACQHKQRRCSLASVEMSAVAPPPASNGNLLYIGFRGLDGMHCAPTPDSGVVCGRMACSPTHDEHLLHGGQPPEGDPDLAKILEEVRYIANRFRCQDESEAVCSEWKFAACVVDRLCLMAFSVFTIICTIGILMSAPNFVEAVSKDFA
Text: Four young-adult male rhesus monkeys (Macaca mulatta) weighing from 4 to 6 kg were used for PET measurements. The monkeys were trained for the protocol as described previously. The magnetic resonance images (MRI) of all monkeys were obtained with a Toshiba MRT-50A/II (0.5T) under anesthesia with pentobarbital. The stereotactic coordinates of PET and MRI were adjusted based on the orbitomeatal (OM) line with monkeys secured in a specially designed head holder. At least 1 month before the PET study, an acrylic plate, with which the monkey was fixed to the monkey chair, was attached to the head under pentobarbital anesthesia as described previously.
PET data were collected on a high-resolution PET scanner (SHR-7700; Hamamatsu Photonics K.K., Hamamatsu, Japan). The camera consists of 16 detector rings and acquires 20 slices at a center-to-center interval of 3.6 mm with a transaxial resolution of 2.6 mm full width at half maximum. After an overnight fast, the monkey was fixed to the monkey chair with stereotactic coordinates aligned parallel to the OM line. A cannula was implanted in the posterior tibial vein, and [^11C]A-582941 or [^11C]A-844606 (1152–1336 MBq/26.8–63.1 nmol) was injected into the monkey through the venous cannula. PET images were acquired over 91 min (10 sec ×6 frames, 30 sec ×6 frames, 1 min ×12 frames, and 3 min ×25 frames). PET scans were reconstructed using a filtered backprojection method in a 100×100 matrix, with a voxel size of 1.2 mm ×1.2 mm ×3.6 mm. Summed image of late phase (from 70 to 91 min post-injection) was calculated as a static SUV (activity/ml tissue)/(injected activity/g body weight) image. Each MRI was coregistered to an early (from 0 to 20 min) summed image using normalized mutual information, and ROIs were placed on the summed image with reference to the coregistered MRI. Three monkeys underwent [^11C]A-582941 scan morning, and then two of the three monkeys underwent [^11C]A-844606 afternoon (baseline). Within 6 months the last one of the three monkeys underwent two [^11C]A-844606 scans in the baseline (morning) and blocking (afternoon) conditions 30 min after injection of SSR180711 (5.0 mg/kg, i.v.), and the fourth monkey underwent two [^11C]A-582941 scans in the baseline and blocking conditions in the same way.
For the semi-quantitative analysis of PET data, arterial samples were obtained every 8 sec from injection to 64 sec, and then again at 1.5, 2.5, 4, 6, 10, 20, 30, 45, 60, and 90 min after each tracer injection. Blood samples were centrifuged to separate the plasma, weighed, and subjected to radioactivity measurement. For metabolite analysis, methanol was added to some plasma samples, the resulting solutions were centrifuged, and the supernatants were developed with TLC plates (AL SIL G/UV; Whatman, Kent, UK) using a mobile phase of dichloromethane/diethyl ether/ethanol/triethylamine (20/20/2/2, v/v/v/v). At each sampling time point, the ratio of radioactivity in the unmetabolized fraction to that in the total plasma (metabolite plus unmetabolite) was determined using a phosphoimaging plate (BAS-1500 MAC; Fuji Film Co., Tokyo, Japan). The pTACs corrected for metabolite were obtained. The tTACs in each region of interest (ROI) in the brain were calculated as the %ID/ml or as a standardized uptake value (SUV), (activity/ml tissue)/(injected activity/g body weight). Using the tTACs and the metabolite-corrected pTAC, the V T for each tracer was evaluated by Logan graphical analysis.

α7 nAChRs [4] = conditions: read-out: KD for α-bungarotoxin; cited from earlier work

α7 nAChRs (Mus musculus, UniProt P49582), sequence (P49582 23-502): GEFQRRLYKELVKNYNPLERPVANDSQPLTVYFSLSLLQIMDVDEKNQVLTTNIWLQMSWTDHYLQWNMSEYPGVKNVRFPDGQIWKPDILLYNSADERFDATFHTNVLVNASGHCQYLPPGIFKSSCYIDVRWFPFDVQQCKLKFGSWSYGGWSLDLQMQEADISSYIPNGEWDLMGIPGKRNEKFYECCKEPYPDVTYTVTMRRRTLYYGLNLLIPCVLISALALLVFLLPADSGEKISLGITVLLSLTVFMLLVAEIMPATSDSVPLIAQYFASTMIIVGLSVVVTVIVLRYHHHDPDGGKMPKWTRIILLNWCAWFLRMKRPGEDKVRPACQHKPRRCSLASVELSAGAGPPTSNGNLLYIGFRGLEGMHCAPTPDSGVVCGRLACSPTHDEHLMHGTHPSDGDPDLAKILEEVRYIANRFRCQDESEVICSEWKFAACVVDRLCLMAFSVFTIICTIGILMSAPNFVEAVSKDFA

Molecule: O=C(Oc1ccc(Br)cc1)N1CCN2CCC1CC2 [SSR180711]
- % Injected dose/g tissue, Cerebellum (α7 nAChRs [1]): 3.32±0.25 % Injected dose/g tissue and 5.10±0.69 % Injected dose/g tissue
- % Injected dose/g tissue, Cerebral cortex (α7 nAChRs [1]): 5.02±0.46 % Injected dose/g tissue and 8.43±1.07 % Injected dose/g tissue
- % Injected dose/g tissue, Hippocampus (α7 nAChRs [1]): 4.63±0.51 % Injected dose/g tissue and 6.26±0.64 % Injected dose/g tissue
- % Injected dose/g tissue, Hypothalamus (α7 nAChRs [1]): 3.49±0.36 % Injected dose/g tissue and 4.74±0.70 % Injected dose/g tissue
- % Injected dose/g tissue, Medulla oblongata (α7 nAChRs [1]): 3.15±0.14 % Injected dose/g tissue and 5.35±0.33 % Injected dose/g tissue
- % Injected dose/g tissue, Midbrain (α7 nAChRs [1]): 3.91±0.45 % Injected dose/g tissue and 6.69±0.79 % Injected dose/g tissue
- % Injected dose/g tissue, Striatum (α7 nAChRs [1]): 4.19±1.04 % Injected dose/g tissue and 7.32±1.84 % Injected dose/g tissue
- % Injected dose/g tissue, Whole brain (α7 nAChRs [1]): 4.21±0.39 % Injected dose/g tissue and 6.82±0.64 % Injected dose/g tissue
- IC50 (α4β2): > 50000 nM

Molecule: [11CH3]N1CC2CN(c3ccc4oc5ccccc5c(=O)c4c3)CC2C1 (stereo not shown) [[^11C]A-844606, 2-(5-[^11C]Methyl-hexahydro-pyrrolo[3,4-c]pyrrol-2-yl)-xanthene-9-one]
- time of peak radioactivity in the brain [2]: 30 min
- % Injected dose/g tissue, Blood (α7 nAChRs [1]): 0.57±0.11 % Injected dose/g tissue
- % Injected dose/g tissue, Cerebellum (α7 nAChRs [1]): 4.54±0.63 % Injected dose/g tissue
- % Injected dose/g tissue, Cerebral cortex (α7 nAChRs [1]): 7.63±0.98 % Injected dose/g tissue
- % Injected dose/g tissue, Hippocampus (α7 nAChRs [1]): 4.46±0.90 % Injected dose/g tissue
- % Injected dose/g tissue, Hypothalamus (α7 nAChRs [1]): 4.21±1.55 % Injected dose/g tissue
- % Injected dose/g tissue, Medulla oblongata (α7 nAChRs [1]): 5.25±0.95 % Injected dose/g tissue
- % Injected dose/g tissue, Midbrain (α7 nAChRs [1]): 5.43±0.75 % Injected dose/g tissue
- % Injected dose/g tissue, Striatum (α7 nAChRs [1]): 5.01±2.00 % Injected dose/g tissue
- % Injected dose/g tissue, Whole brain (α7 nAChRs [1]): 5.83±0.56 % Injected dose/g tissue
- V T Baseline, Cerebellum (α7 nAChRs [3]; male): 95.9 mL/g
- V T Baseline, Frontal cortex (α7 nAChRs [3]; male): 132.2 mL/g
- V T Baseline, Hippocampus (α7 nAChRs [3]; male): 123.1 mL/g
- V T Baseline, Thalamus (α7 nAChRs [3]; male): 141.5 mL/g
- V T SSR180711, Cerebellum (α7 nAChRs [3]; male): 52.8 mL/g
- V T SSR180711, Frontal cortex (α7 nAChRs [3]; male): 65.3 mL/g
- V T SSR180711, Hippocampus (α7 nAChRs [3]; male): 57.5 mL/g
- V T SSR180711, Thalamus (α7 nAChRs [3]; male): 69.3 mL/g
- V T, cerebellum (mean ± SD) (α7 nAChRs [3]; male): 95.2±32.8
- V T, cerebellum (range) (α7 nAChRs [3]; male): 62.1–127.7
- V T, frontal cortex (mean ± SD) (α7 nAChRs [3]; male): 130.9±40.4
- V T, frontal cortex (range) (α7 nAChRs [3]; male): 89.8–170.6
- V T, hippocampus (mean ± SD) (α7 nAChRs [3]; male): 118.5±33.6
- V T, hippocampus (range) (α7 nAChRs [3]; male): 82.9–149.6
- V T, thalamus (mean ± SD) (α7 nAChRs [3]; male): 138.6±42.3
- V T, thalamus (range) (α7 nAChRs [3]; male): 95.0–179.4
- time at which brain radioactivity reached a plateau (α7 nAChRs [3]; male): 40 to 60 min
- time at which radioactivity in the cerebellum reached a plateau (α7 nAChRs [3]; male): 40 min
- % decrease of V T, Cerebellum (α7 nAChRs [3]): 45.0%
- % decrease of V T, Frontal cortex (α7 nAChRs [3]): 50.6%
- % decrease of V T, Hippocampus (α7 nAChRs [3]): 53.3%
- % decrease of V T, Thalamus (α7 nAChRs [3]): 51.0%
- decrease of V T by pretreatment with SSR180711 (α7 nAChRs [3]): ~50%

Molecule: α-bungarotoxin
- Kd (α7 nAChRs [4]): 1.67 nM
